Test results as given in ChEMBL document CHEMBL1909046, “DrugMatrix in vitro pharmacology data”.

Experiments:
[1] = biological target: Carbonic anhydrase 2 (Homo sapiens, UniProt P00918); test: DRUGMATRIX: Carbonic Anhydrase II enzyme inhibition (substrate: 4-Nitrophenyl acetate (4-NPA)); assay type: tissue-based, Erythrocyte; conditions: erythrocyte; Not Active = under 50% inhibition at 10 µM
[2] = biological target: T1, Alpha-2A adrenergic receptor (Homo sapiens, UniProt P08913); assay type: cell membranes, Sf9, Membrane; note: in other assays of this panel Not Active means under 50% inhibition at 10 µM
T1 sequence (P08913 whole entry): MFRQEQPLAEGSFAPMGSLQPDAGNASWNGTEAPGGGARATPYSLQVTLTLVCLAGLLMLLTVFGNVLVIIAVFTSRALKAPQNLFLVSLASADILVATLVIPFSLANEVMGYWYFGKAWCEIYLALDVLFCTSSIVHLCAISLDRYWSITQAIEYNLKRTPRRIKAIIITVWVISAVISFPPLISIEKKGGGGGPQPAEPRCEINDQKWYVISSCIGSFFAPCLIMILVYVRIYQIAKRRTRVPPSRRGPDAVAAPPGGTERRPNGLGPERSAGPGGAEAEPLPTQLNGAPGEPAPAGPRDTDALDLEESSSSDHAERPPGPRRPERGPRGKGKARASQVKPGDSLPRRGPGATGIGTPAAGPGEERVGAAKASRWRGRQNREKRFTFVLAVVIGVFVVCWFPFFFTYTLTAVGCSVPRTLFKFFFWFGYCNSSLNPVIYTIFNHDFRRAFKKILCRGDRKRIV

[3] = biological target: T2, Muscarinic acetylcholine receptor M4 (Homo sapiens, UniProt P08173); assay type: cell membranes, CHO-K1, Membrane; note: in other assays of this panel Not Active means under 50% inhibition at 10 µM
T2 sequence (P08173 whole entry): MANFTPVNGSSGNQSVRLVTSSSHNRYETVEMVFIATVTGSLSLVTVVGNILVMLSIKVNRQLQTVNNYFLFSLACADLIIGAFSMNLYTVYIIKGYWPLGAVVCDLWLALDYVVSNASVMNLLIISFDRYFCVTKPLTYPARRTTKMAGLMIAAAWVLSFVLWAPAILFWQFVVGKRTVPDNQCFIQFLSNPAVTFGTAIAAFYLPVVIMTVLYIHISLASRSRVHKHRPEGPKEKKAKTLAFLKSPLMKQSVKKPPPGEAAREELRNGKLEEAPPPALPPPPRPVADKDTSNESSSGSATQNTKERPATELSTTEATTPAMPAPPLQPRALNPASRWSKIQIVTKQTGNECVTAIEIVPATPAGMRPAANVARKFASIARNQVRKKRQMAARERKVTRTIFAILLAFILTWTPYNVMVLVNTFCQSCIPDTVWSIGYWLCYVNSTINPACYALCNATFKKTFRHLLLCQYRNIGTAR

[4] = biological target: T3, Muscarinic acetylcholine receptor M5 (Homo sapiens, UniProt P08912); assay type: cell membranes, CHO-K1, Membrane; note: in other assays of this panel Not Active means under 50% inhibition at 10 µM
T3 sequence (P08912 whole entry): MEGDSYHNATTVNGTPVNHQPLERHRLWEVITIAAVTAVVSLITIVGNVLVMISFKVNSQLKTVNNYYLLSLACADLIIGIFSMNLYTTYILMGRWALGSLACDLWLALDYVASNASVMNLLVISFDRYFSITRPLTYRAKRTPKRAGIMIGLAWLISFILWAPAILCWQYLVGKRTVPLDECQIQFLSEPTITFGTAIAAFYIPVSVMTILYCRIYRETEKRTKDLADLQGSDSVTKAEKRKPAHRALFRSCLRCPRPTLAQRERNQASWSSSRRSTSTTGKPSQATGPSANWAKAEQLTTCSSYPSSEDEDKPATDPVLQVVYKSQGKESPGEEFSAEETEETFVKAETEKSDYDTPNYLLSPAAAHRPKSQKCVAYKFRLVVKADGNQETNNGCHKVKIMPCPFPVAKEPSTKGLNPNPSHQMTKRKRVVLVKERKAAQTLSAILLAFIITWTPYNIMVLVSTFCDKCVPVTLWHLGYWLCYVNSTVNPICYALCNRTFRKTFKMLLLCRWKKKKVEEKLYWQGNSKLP

[5] = biological target: Histamine H2 receptor (Homo sapiens, UniProt P25021); assay type: cell membranes, CHO-K1, Membrane; conditions: cho-k1; note: in other assays of this panel Not Active means under 50% inhibition at 10 µM
Sequence of Histamine H2 receptor (P25021 whole entry): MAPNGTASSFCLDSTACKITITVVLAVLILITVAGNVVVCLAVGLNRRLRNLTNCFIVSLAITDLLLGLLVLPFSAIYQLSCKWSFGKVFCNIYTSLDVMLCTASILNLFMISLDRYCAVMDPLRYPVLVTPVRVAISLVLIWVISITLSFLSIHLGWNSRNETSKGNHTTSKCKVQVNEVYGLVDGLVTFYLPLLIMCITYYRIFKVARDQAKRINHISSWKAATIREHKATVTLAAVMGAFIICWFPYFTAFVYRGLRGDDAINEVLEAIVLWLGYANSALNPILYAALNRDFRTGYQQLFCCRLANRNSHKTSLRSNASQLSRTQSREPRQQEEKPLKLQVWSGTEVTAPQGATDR

Compound | IC50 [1] | IC50 ([2]; sf9) | IC50 ([3]; cho-k1) | IC50 ([4]; cho-k1) | IC50 [5] | Ki [1] | Ki ([2]; sf9) | Ki ([3]; cho-k1) | Ki ([4]; cho-k1) | Ki [5] | IC50 ([2]; read-out: IC50) [nM] | Ki ([2]; read-out: Ki) [nM] | IC50 ([3]; read-out: IC50) [nM] | Ki ([3]; read-out: Ki) [nM] | IC50 ([4]; read-out: IC50) [nM] | Ki ([4]; read-out: Ki) [nM]
CC(=O)O[C@@]12CO[C@@H]1C[C@H](O)[C@@]1(C)C(=O)[C@H](O)C3=C(C)[C@@H](OC(=O)[C@H](O)[C@@H](NC(=O)OC(C)(C)C)c4ccccc4)C[C@@](O)([C@@H](OC(=O)c4ccccc4)[C@H]21)C3(C)C.O.O.O [DOCETAXEL] | Not Active | Not Active | Not Active | Not Active | Not Active | – | – | – | – | – | – | – | – | – | – | –
CC(C)CN(C[C@@H](O)[C@H](Cc1ccccc1)NC(=O)O[C@H]1CCOC1)S(=O)(=O)c1ccc(N)cc1 | Not Active | Not Active | Not Active | Not Active | Not Active | – | – | – | – | – | – | – | – | – | – | –
C[C@](N)(Cc1ccc(O)c(O)c1)C(=O)O [METHYLDOPA] | Not Active | Not Active | Not Active | Not Active | Not Active | – | – | – | – | – | – | – | – | – | – | –
Nc1nc(N)nc(-c2cc(Cl)ccc2Cl)n1.O=C(O)/C=C\C(=O)O [IRSOGLADINE MALEATE] | Not Active | Not Active | Not Active | Not Active | Not Active | – | – | – | – | – | – | – | – | – | – | –
Nc1ncn([C@@H]2O[C@H](CO)[C@@H](O)[C@H]2O)c(=O)n1 [AZACITIDINE] | Not Active | Not Active | Not Active | Not Active | Not Active | – | – | – | – | – | – | – | – | – | – | –
LIPOPOLYSACCHARIDE E. COLI O55:B5 | Not Active | Not Active | Not Active | Not Active | Not Active | Not Active | Not Active | Not Active | Not Active | Not Active | – | – | – | – | – | –
CCCCN1CCCC[C@H]1C(=O)Nc1c(C)cccc1C [LEVOBUPIVACAINE] | Not Active | Not Active | Not Active | Not Active | Not Active | – | – | – | – | – | – | – | – | – | – | –
CC(C)C(=O)Nc1ccc([N+](=O)[O-])c(C(F)(F)F)c1 [FLUTAMIDE] | Not Active | Not Active | Not Active | Not Active | Not Active | – | – | – | – | – | – | – | – | – | – | –
CC(C)[C@H]1C(=O)N2CCC[C@H]2[C@]2(O)O[C@](NC(=O)[C@@H]3C=C4c5cccc6[nH]cc(c56)C[C@H]4N(C)C3)(C(C)C)C(=O)N12 [ERGOCORNINE] | Not Active | – | Not Active | Not Active | Not Active | – | – | – | – | – | 6.3 | 2.36 | – | – | – | –
CC(C)(Oc1ccc(Cl)cc1)C(=O)O [CLOFIBRIC ACID] | Not Active | Not Active | Not Active | Not Active | Not Active | – | – | – | – | – | – | – | – | – | – | –
CCCC1O[C@@H]2C[C@H]3[C@@H]4CCC5=CC(=O)C=C[C@]5(C)[C@H]4[C@@H](O)C[C@]3(C)[C@]2(C(=O)CO)O1 (some centres undefined) [BUDESONIDE] | Not Active | Not Active | Not Active | Not Active | Not Active | – | – | – | – | – | – | – | – | – | – | –
O=C(CCCN1CC=C(n2c(=O)[nH]c3ccccc32)CC1)c1ccc(F)cc1 [DROPERIDOL] | Not Active | – | – | – | Not Active | – | – | – | – | – | 2960 | 1110 | 3850 | 537 | 2300 | 1650
Cc1onc(O)c1CC(N)C(=O)O (racemic) [(R,S)-AMPA] | Not Active | Not Active | Not Active | Not Active | Not Active | – | – | – | – | – | – | – | – | – | – | –
